Where two headings read alike, the source gives them in different places.
Key:
SIK2 = SIK2 (Homo sapiens (Human), UniProt Q9H0K1); assay: Dundee profiling
wild type LRRK2 = wild type LRRK2 (Homo sapiens (Human), UniProt Q5S007); assay: LRRK2 enzyme kinase assay, wild type; assay type: biochemical; settings: Table 1; ATP at Km 36 μm; read-out: Enzyme IC50 wt
TBK1 = TBK1 (Homo sapiens (Human), UniProt Q9UHD2); assay: Dundee profiling
JAK2 = JAK2 (Homo sapiens (Human), UniProt O60674); assay: Dundee profiling
IRAK4 = IRAK4 (Homo sapiens (Human), UniProt Q9NWZ3); assay: Dundee profiling
AMPK = assay: Dundee profiling
CHK2 = CHK2 (Homo sapiens (Human), UniProt O96017); assay: Dundee profiling
PIM3 = PIM3 (Homo sapiens (Human), UniProt Q86V86); assay: Dundee profiling
TTBK2 = TTBK2 (Homo sapiens (Human), UniProt Q6IQ55); assay: Dundee profiling
panel of 451 kinases = assay: KinomeScan panel selectivity; assay type: binding; settings: 1 μM
Description: The kinase selectivity of Compound 18 was further evaluated by KinomeScan.

p38a MAPK = p38a MAPK (Homo sapiens (Human), UniProt Q16539); assay: Dundee profiling
MARK1 = MARK1 (Homo sapiens (Human), UniProt Q9P0L2); assay: Dundee profiling
[1] = target: JAK1 (JH1domain-catalytic) (Homo sapiens (Human), UniProt P23458); assay: KinomeScan; assay type: binding; settings: 1 uM
[2] = target: EGFR (L747-T751del, Sins) (Homo sapiens (Human), UniProt P00533, DEL747-751/INS746S); assay: KinomeScan; assay type: binding; settings: 1 uM
JNK2 = JNK2 (Homo sapiens (Human), UniProt P45984); assay: KinomeScan; assay type: binding; settings: 1 uM
ARK5 = ARK5 (Homo sapiens (Human), UniProt O60285); assay: KinomeScan; assay type: binding; settings: 1 uM
ERK8 = ERK8 (Homo sapiens (Human), UniProt Q8TD08); assay: Dundee profiling
EPH-A2 = EPH-A2 (Homo sapiens (Human), UniProt P29317); assay: Dundee profiling
PKCz = PKCz (Homo sapiens (Human), UniProt Q05513); assay: Dundee profiling
[3] = target: RSK4 (Kin.Dom.1-N-terminal) (Homo sapiens (Human), UniProt Q9UK32); assay: KinomeScan; assay type: binding; settings: 1 uM
LRRK2 = LRRK2 (Mus musculus (Mouse), UniProt Q5S006); assay: Pharmacodynamic study, LRRK2 Ser910/Ser935 phosphorylation in mouse kidney, spleen and brain; assay type: in vivo
FLT3 (ITD) = assay: KinomeScan; assay type: binding; settings: 1 uM
CAMKKb = CAMKKb (Homo sapiens (Human), UniProt Q96RR4); assay: Dundee profiling
IRR = IRR (Homo sapiens (Human), UniProt P14616); assay: Dundee profiling
RIPK2 = RIPK2 (Homo sapiens (Human), UniProt O43353); assay: Dundee profiling
BRK = BRK (Homo sapiens (Human), UniProt Q13882); assay: Dundee profiling
SIK = SIK (Homo sapiens (Human), UniProt P57059); assay: KinomeScan; assay type: binding; settings: 1 uM
PDGFRA = PDGFRA (Homo sapiens (Human), UniProt P16234); assay: Dundee profiling
CDK3 = CDK3 (Homo sapiens (Human), UniProt Q00526); assay: KinomeScan; assay type: binding; settings: 1 uM
EGFR (L858R) = EGFR (L858R) (Homo sapiens (Human), UniProt P00533, L858R); assay: KinomeScan; assay type: binding; settings: 1 uM
PAK5 = PAK5 (Homo sapiens (Human), UniProt Q9P286); assay: Dundee profiling
p38b MAPK = p38b MAPK (Homo sapiens (Human), UniProt Q15759); assay: Dundee profiling
CLK2 = CLK2 (Homo sapiens (Human), UniProt P49760); assay: Dundee profiling
[4] = read-out: percent remaining enzymatic activity, I1, 1 μM
[5] = read-out: percent remaining enzymatic activity, I10
[6] = read-out: percent remaining enzymatic activity

Sequence of CHK2 (O96017 whole entry, species assumed): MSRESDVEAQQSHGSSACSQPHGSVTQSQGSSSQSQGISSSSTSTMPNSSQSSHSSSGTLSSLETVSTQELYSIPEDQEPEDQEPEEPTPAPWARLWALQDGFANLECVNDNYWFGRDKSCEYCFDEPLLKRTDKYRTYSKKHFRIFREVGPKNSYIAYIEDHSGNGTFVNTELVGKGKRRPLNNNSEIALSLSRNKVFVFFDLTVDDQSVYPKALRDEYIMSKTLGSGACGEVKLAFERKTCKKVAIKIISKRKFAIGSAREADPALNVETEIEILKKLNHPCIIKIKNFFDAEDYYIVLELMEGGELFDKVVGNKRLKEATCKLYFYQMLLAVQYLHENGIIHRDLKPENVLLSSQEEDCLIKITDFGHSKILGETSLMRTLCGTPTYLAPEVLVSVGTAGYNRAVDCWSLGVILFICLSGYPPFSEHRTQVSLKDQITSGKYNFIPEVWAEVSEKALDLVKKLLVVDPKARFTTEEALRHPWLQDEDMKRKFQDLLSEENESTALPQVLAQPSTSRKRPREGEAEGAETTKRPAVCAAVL
Sequence of LRRK2 (Q5S006 whole entry, looked up): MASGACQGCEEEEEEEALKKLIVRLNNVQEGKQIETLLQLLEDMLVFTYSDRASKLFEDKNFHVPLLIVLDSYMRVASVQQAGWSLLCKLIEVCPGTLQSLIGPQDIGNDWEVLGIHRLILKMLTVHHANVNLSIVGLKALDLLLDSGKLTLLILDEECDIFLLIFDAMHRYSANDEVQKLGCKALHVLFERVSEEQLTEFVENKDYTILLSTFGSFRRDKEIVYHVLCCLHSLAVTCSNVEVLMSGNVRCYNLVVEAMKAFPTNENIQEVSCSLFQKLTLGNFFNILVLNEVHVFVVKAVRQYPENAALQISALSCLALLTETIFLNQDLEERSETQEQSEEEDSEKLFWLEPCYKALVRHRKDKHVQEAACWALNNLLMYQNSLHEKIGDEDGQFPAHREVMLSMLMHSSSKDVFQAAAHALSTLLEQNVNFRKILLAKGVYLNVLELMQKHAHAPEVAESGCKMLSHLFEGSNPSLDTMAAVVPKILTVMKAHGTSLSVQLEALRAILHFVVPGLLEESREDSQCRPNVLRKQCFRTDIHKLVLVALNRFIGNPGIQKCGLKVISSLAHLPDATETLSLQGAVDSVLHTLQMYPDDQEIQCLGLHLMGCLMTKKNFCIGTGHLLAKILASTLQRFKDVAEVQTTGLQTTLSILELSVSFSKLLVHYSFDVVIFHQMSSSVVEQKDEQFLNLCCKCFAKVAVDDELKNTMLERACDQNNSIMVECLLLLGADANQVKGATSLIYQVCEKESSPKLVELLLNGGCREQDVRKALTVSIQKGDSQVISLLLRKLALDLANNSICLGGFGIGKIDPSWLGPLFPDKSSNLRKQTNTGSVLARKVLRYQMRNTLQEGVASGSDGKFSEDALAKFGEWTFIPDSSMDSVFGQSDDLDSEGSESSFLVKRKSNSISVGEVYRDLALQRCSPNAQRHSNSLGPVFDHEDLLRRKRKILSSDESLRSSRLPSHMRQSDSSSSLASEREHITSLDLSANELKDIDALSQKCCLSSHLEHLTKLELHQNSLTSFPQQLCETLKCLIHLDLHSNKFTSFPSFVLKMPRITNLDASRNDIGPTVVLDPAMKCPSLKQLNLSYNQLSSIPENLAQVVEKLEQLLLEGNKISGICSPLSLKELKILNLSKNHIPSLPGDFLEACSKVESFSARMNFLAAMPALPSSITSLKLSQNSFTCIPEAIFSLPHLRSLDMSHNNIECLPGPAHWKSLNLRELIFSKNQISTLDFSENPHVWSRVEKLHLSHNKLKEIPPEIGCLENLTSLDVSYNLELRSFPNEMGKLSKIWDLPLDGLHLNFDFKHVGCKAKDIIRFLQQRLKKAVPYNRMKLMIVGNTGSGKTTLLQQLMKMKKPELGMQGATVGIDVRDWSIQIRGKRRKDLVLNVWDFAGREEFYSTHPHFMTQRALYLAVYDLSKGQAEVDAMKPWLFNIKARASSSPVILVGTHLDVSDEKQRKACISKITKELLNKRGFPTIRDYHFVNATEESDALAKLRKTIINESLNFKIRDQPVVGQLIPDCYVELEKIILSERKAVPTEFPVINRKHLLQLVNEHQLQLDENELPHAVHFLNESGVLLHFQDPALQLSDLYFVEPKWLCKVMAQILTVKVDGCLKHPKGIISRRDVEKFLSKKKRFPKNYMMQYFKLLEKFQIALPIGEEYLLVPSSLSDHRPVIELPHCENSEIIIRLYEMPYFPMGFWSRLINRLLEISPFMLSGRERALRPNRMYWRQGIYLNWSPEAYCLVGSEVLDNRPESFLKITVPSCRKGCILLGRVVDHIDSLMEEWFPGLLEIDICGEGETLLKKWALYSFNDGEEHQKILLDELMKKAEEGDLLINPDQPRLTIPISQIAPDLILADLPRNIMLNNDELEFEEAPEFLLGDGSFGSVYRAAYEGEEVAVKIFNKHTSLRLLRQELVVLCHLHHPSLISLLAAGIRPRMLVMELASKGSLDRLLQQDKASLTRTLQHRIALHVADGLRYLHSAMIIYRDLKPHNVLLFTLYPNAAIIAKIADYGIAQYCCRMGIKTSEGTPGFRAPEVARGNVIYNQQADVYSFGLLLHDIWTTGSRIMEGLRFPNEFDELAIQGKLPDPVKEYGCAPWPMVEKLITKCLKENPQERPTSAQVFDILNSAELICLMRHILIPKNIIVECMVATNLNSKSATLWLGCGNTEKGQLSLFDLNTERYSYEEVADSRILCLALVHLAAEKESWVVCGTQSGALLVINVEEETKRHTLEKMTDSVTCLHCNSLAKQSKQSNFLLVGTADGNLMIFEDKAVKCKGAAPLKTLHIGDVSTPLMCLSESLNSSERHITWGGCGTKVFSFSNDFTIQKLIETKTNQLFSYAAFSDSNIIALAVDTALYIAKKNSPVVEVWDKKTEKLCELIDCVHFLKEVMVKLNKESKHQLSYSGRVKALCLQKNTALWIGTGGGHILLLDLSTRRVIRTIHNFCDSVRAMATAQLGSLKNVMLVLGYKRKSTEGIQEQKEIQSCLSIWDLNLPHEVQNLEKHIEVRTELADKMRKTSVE
Sequence of JAK2 (O60674 whole entry, species assumed): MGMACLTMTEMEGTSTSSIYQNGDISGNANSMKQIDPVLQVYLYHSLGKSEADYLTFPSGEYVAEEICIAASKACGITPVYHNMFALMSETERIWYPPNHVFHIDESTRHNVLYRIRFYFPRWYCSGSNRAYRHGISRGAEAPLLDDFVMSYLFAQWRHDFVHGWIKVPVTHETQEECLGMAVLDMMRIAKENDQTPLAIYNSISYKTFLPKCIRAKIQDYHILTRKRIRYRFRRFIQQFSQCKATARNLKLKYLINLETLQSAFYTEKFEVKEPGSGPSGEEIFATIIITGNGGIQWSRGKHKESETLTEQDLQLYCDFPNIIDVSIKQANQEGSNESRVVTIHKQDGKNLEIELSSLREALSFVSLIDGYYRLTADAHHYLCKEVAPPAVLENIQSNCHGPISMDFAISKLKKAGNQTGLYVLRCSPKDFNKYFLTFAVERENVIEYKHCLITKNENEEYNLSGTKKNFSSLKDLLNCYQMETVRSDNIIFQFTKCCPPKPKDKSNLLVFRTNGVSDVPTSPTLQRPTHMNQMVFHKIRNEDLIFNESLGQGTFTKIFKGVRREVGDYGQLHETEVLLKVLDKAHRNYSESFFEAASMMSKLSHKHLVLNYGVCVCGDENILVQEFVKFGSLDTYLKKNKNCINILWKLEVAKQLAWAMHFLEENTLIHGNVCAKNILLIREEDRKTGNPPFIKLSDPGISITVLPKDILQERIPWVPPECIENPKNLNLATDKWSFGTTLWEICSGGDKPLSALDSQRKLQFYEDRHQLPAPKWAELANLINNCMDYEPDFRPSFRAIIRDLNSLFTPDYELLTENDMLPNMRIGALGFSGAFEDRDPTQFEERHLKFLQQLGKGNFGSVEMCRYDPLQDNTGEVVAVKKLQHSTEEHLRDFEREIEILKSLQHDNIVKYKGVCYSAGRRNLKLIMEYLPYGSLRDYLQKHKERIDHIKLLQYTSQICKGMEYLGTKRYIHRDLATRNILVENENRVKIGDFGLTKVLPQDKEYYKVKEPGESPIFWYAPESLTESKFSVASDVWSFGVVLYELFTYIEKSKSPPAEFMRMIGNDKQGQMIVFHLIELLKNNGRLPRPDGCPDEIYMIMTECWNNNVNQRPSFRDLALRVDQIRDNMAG
Sequence of p38b MAPK (Q15759 whole entry): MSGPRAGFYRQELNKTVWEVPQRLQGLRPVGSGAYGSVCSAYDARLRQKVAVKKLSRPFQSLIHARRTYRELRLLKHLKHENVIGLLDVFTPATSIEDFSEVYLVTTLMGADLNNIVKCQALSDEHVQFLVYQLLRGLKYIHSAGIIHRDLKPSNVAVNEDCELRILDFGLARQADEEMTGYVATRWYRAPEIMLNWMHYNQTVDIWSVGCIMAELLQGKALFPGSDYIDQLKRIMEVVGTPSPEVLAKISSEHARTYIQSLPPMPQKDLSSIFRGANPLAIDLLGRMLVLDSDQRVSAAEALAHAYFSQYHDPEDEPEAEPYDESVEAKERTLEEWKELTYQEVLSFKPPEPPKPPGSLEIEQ
Sequence of IRAK4 (Q9NWZ3 whole entry, looked up, species assumed): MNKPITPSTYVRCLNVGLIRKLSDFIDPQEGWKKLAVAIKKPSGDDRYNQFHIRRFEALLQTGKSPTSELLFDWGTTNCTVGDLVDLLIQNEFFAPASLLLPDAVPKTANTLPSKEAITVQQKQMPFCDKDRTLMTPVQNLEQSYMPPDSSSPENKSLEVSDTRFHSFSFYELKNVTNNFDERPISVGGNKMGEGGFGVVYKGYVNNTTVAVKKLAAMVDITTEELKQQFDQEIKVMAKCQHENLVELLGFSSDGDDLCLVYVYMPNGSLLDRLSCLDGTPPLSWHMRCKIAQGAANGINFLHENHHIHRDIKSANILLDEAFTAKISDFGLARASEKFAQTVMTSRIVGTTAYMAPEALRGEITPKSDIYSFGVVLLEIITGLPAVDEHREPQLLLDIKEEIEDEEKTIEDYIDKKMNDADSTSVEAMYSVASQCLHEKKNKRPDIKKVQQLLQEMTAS

`CNc1nc(Nc2ccc(C(=O)N3CCOCC3)cc2OC)nc2[nH]cc(Cl)c12` [Compound 18, (4-((5-chloro-4-(methylamino)-7H-pyrrolo[2,3-d]pyrimidin-2-yl)amino)-3-methoxyphenyl)(morpholino)methanone] was tested, and the remaining activity at 1 µM (SIK2; [4]) was 109%, the remaining activity at 1 µM (SIK2; [5]) was 92% and the IC50 (wild type LRRK2) was 6.5 nM. The remaining activity at 1 µM (TBK1; [4]) was 88%, the remaining activity at 1 µM (TBK1; [5]) was 67% and the “percent remaining enzymatic activity” value (JAK2; I10) was 97%. For the same molecule, the remaining activity at 1 µM (JAK2; [6]) was 99%, the “percent remaining enzymatic activity” value (IRAK4; I10) was 82% and the remaining activity at 1 µM (IRAK4; [6]) was 95%. For the same molecule, the “percent remaining enzymatic activity” value (AMPK; I1, 1 μM) was 112%, the “percent remaining enzymatic activity” value (AMPK; I10) was 103% and the IC50 (CHK2) was 27.6 nM. For the same molecule, the inhibition at 1 µM (CHK2; read-out: inhibition of kinase activity of the DMSO control) was > 90%, the remaining activity at 1 µM (CHK2; [4]) was 5% and the remaining activity at 1 µM (CHK2; [5]) was 1%. The remaining activity at 1 µM (PIM3; [4]) was 96%, the remaining activity at 1 µM (PIM3; [5]) was 75% and the “percent remaining enzymatic activity” value (TTBK2; I10) was 90%. The remaining activity at 1 µM (TTBK2; [6]) was 105%, the “kinase selectivity, interactions detected” value (panel of 451 kinases) was “no interactions detected with kinases other than LRRK2[G2019S] with the exception of TTK and RPS6KA4” and the “percent remaining enzymatic activity” value (p38a MAPK; I10) was 104%. It also gave a remaining activity at 1 µM (p38a MAPK; [6]) of 90%, a remaining activity at 1 µM (MARK1; [4]) of 89% and a remaining activity at 1 µM (MARK1; [5]) of 77%. The KinomeScan value [1] was 77, the KinomeScan value [2] was 84 and the KinomeScan value (JNK2) was 78. The KinomeScan value (ARK5) was 89, the remaining activity at 1 µM (ERK8; [4]) was 108% and the remaining activity at 1 µM (ERK8; [5]) was 71%. For the same molecule, the remaining activity at 1 µM (EPH-A2; [4]) was 104%, the remaining activity at 1 µM (EPH-A2; [5]) was 101% and the remaining activity at 1 µM (PKCz; [4]) was 76%. The remaining activity at 1 µM (PKCz; [5]) was 94%, the KinomeScan value [3] was 93 and the “inhibition of LRRK2 Ser935 phosphorylation in brain” value (LRRK2; 10 mg/kg) was “only partial inhibition in brain”. For the same molecule, the “inhibition of LRRK2 Ser935 phosphorylation in tissues” value (LRRK2; 30 mg/kg) was “near complete inhibition in all tissues”, the “dephosphorylation of Ser935 of LRRK2 in kidney, spleen and brain” value (LRRK2; 100 mg/kg, intraperitoneal) was “near complete dephosphorylation of Ser935 of LRRK2” and the KinomeScan value (FLT3 (ITD)) was 94. It also gave a remaining activity at 1 µM (CAMKKb; [4]) of 50%, a remaining activity at 1 µM (CAMKKb; [5]) of 16% and a remaining activity at 1 µM (IRR; [4]) of 31%. It also gave a remaining activity at 1 µM (IRR; [5]) of 10%, a remaining activity at 1 µM (RIPK2; [4]) of 102% and a remaining activity at 1 µM (RIPK2; [5]) of 83%. It also gave a remaining activity at 1 µM (BRK; [4]) of 62%, a remaining activity at 1 µM (BRK; [5]) of 19% and a KinomeScan value (SIK) of 94. It also gave a remaining activity at 1 µM (PDGFRA; [4]) of 109%, a remaining activity at 1 µM (PDGFRA; [5]) of 89% and a KinomeScan value (CDK3) of 96. The KinomeScan value (EGFR (L858R)) was 83, the remaining activity at 1 µM (PAK5; [4]) was 89% and the remaining activity at 1 µM (PAK5; [5]) was 70%. For the same molecule, the remaining activity at 1 µM (p38b MAPK; [4]) was 108%, the remaining activity at 1 µM (p38b MAPK; [5]) was 79% and the remaining activity at 1 µM (CLK2; [4]) was 13%. For the same molecule, the remaining activity at 1 µM (CLK2; [5]) was 2%.

— US10913744B2, “LRRK2 inhibitors and methods of making and using the same” (Dana-Farber Cancer Institute, Inc., priority 2015, dated 2021)
